From PMC10799935, “Discovery of a peripheral 5HT2A antagonist as a clinical candidate for metabolic dysfunction-associated steatohepatitis” (Nature Communications, 2024)
Where “and” joins values, the source holds several entries; their conditions need not be identical. Identical values can stand only once.

Assays:
[1] = tested on: HFD-fed C57BL/6J mice; test: DIO mice: tissue weight; assay type: in vivo, mouse; settings: for Tissue Weight Kidney / Tissue Weight Liver / Tissue Weight Pancreas / Tissue Weight eWAT / Tissue Weight iWAT: PO; for Predicted (LS) mean diff. (Vehicle vs. 11c), Tissue Weight: Dunnett's multiple comparisons test; for Significant? (Vehicle vs. 11c), Tissue Weight: Dunnett's test, alpha 0.05; for Predicted (LS) mean 2 (11c group), Tissue Weight: test details, in g (unit assumed)
From the text: For in vivo efficacy in DIO models and CDAHFD models, the experimental protocol for this study was approved by the Institutional Animal Care and Use Committee (IACUC) at the Korea Advanced Institute of Science and Technology (No. KA2023-027-v2) or Kyungpook National University (No. KNU-20200134). All relevant ethical guidelines were followed. C57BL/6 J male mice (11 weeks old) were purchased from the Charles River Japan and were housed in a specific pathogen-free barrier facility under a regular light-dark cycle (12-hour light/12-hour dark) at 24°C with 40–60% humidity. Food (standard chow diet, Envigo, 2018S) and water were provided ad libitum. […] Mice were euthanized by the method of cervical dislocation. The measurement of lean and fat mass in live mice was performed by a body composition analyzer (LF50 BCA-analyzer, Bruker). After 6 h of fasting, mice were sacrificed, and tissue samples were obtained.

[2] = In vivo PK with diverse doses (5, 10, 20 mpk) for PK and PD co-relation
Procedure: In this paper, the authors based on their previous studies on 5-HT2A LKO mice and 5HT2A antagonists, try to synthesize a serial of new derivatives based on the compound 2 (Clarinex) to develop oral drug candidates of […]
Then the authors tested the pharmacokinetics of compound 11c both in rats and dogs by iv and gavage administration. Besides, the tissue distribution of compound 11c was also determined by […]
NASH and fibrosis. The following questions may need to be answered by the authors.
Comment 1: In general, after gavage administration for 8 weeks (page 178-179) or 12 weeks (page 274-275), the compound 11c mainly distributed in digestive track especially in intestines with comparatively lower plasma drug concentration as well as in the other organs.
Response: We appreciate the Reviewer’s comment. For most oral drugs, the high level of total radioactivity is often observed in gastrointestinal tract in QWBA (Quantitative Whole Body Autoradiography). In the study of QWBA for compound 11c, tissue distribution was evaluated in multiple time points. Total radioactivities in stomach and small intestine were high at early time points and decreased at late time points. […]

[3] = in vitro; settings: mouse, plasma
[4] = biological target: 5HT2A (Homo sapiens, UniProt P28223); test: Human 5HT2A inhibition assay (FLIPR calcium 6, 5HT stimulus, stably transfected HEK293 cells); assay type: cell-based; set-up: expressed in transfected cells; host or cells: HEK293; settings: HEK293, 1 μM; read-out: % Inhibition at 1 μM (SD)
Sequence of 5HT2A (P28223 whole entry): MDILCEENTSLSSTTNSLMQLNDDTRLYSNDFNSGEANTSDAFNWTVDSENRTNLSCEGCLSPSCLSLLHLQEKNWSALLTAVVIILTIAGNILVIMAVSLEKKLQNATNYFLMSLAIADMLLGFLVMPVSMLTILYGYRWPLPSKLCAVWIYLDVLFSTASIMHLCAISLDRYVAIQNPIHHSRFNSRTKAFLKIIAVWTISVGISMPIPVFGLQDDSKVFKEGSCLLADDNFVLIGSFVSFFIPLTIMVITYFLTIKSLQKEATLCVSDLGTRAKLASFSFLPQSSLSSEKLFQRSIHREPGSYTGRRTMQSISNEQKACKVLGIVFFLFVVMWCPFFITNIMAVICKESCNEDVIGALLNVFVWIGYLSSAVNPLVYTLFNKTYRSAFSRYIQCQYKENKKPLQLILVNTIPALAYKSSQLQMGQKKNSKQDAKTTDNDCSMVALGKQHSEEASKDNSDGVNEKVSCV
Procedure: The derivatives were evaluated at a concentration of 1 μM for their antagonist activity on the 5HT2A receptor (Tables 1–3)[33],[34]. […] The cells were stained with 100 μL of cytosolic calcium dye using the FLIPR calcium 6 assay solution (Molecular devices, #R8190) supplemented with 2.5 mM probenecid (Sigma; P8761) and incubated for 1 h at 37 °C. After 1 h, the designated amount of the compound was treated in each well and incubated for another 1 h at 37 °C. […] Experimental conditions for the 5HT subtypes can be found in the Supporting Information (Supplementary Table 1).

[5] = DIO mice, 5mpk, individual animals, 5 mg/kg
[6] = DIO mice, 10mpk, individual animals, 10 mg/kg

Compound: Cc1nc2n(c(=O)c1CCN1CCC(=C3c4ccc(Cl)cc4CCc4cccnc43)CC1)CCCC2O (stereo not shown) [Compound 11c]
- Tissue Weight Kidney ([1]; DIO mice, 5mpk, group mean): 0.17 g
- Tissue Weight Liver ([1]; DIO mice, 5mpk, group mean): 1.34 g
- Tissue Weight Pancreas ([1]; DIO mice, 5mpk, group mean): 0.39 g
- Tissue Weight eWAT ([1]; DIO mice, 5mpk, group mean): 1.01 g
- Tissue Weight iWAT ([1]; DIO mice, 5mpk, group mean): 1.37 g
- Tissue Weight Kidney [1, 5]: 0.166 g and 0.156 g and 0.168 g and 0.162 g and 0.198 g and 0.195 g and 0.164 g
- Tissue Weight Liver [1, 5]: 1.353 g and 1.128 g and 1.239 g and 1.293 g and 1.762 g and 1.451 g
- Tissue Weight Pancreas [1, 5]: 0.398 g and 0.353 g and 0.255 g and 0.338 g and 0.634 g and 0.394 g and 0.387 g
- Tissue Weight eWAT [1, 5]: 1.284 g and 1.045 g and 0.952 g and 0.74 g and 0.897 g and 0.939 g and 1.199 g
- Tissue Weight iWAT [1, 5]: 1.826 g and 1.295 g and 1.198 g and 1.045 g and 1.186 g and 1.418 g and 1.644 g
- Tissue Weight Kidney ([1]; DIO mice, 10mpk, group mean): 0.18 g
- Tissue Weight Liver ([1]; DIO mice, 10mpk, group mean): 1.25 g
- Tissue Weight Pancreas ([1]; DIO mice, 10mpk, group mean): 0.36 g
- Tissue Weight eWAT ([1]; DIO mice, 10mpk, group mean): 0.57 g
- Tissue Weight iWAT ([1]; DIO mice, 10mpk, group mean): 1.15 g
- Tissue Weight Kidney [1, 6]: 0.183 g and 0.162 g and 0.142 g and 0.267 g and 0.16 g
- Tissue Weight Liver [1, 6]: 1.17 g and 1.368 g and 1.031 g and 1.332 g and 1.38 g and 1.246 g
- Tissue Weight Pancreas [1, 6]: 0.302 g and 0.381 g and 0.318 g and 0.442 g and 0.387 g and 0.34 g
- Tissue Weight eWAT [1, 6]: 0.449 g and 0.747 g and 0.512 g and 0.764 g and 0.418 g
- Tissue Weight iWAT [1, 6]: 0.774 g and 1.585 g and 1.202 g and 1.593 g and 1.007 g and 0.712 g
- Tissue weight of inguinal white adipose tissue (iWAT) ([1]; DIO mice, vs vehicle): significantly decreased
- Tissue weight of liver ([1]; DIO mice, vs vehicle): significantly decreased
- Predicted (LS) mean diff. (Vehicle vs. 11c), Tissue Weight ([1]; Kidney, 5mpk): 0.01612
- Significant? (Vehicle vs. 11c), Tissue Weight ([1]; Kidney, 5mpk): No
- Predicted (LS) mean 2 (11c group), Tissue Weight ([1]; Kidney, 5mpk): 0.1727
- Predicted (LS) mean diff. (Vehicle vs. 11c), Tissue Weight ([1]; Kidney, 10mpk): 0.006
- Significant? (Vehicle vs. 11c), Tissue Weight ([1]; Kidney, 10mpk): No
- Predicted (LS) mean 2 (11c group), Tissue Weight ([1]; Kidney, 10mpk): 0.1828
- Predicted (LS) mean diff. (Vehicle vs. 11c), Tissue Weight ([1]; Liver, 5mpk): 0.2072
- Significant? (Vehicle vs. 11c), Tissue Weight ([1]; Liver, 5mpk): No
- Predicted (LS) mean 2 (11c group), Tissue Weight ([1]; Liver, 5mpk): 1.336
- Predicted (LS) mean diff. (Vehicle vs. 11c), Tissue Weight ([1]; Liver, 10mpk): 0.289
- Significant? (Vehicle vs. 11c), Tissue Weight ([1]; Liver, 10mpk): Yes
- Predicted (LS) mean 2 (11c group), Tissue Weight ([1]; Liver, 10mpk): 1.255
- Predicted (LS) mean diff. (Vehicle vs. 11c), Tissue Weight ([1]; Pancreas, 5mpk): 0.1064
- Significant? (Vehicle vs. 11c), Tissue Weight ([1]; Pancreas, 5mpk): No
- Predicted (LS) mean 2 (11c group), Tissue Weight ([1]; Pancreas, 5mpk): 0.3941
- Predicted (LS) mean diff. (Vehicle vs. 11c), Tissue Weight ([1]; Pancreas, 10mpk): 0.1388
- Significant? (Vehicle vs. 11c), Tissue Weight ([1]; Pancreas, 10mpk): No
- Predicted (LS) mean 2 (11c group), Tissue Weight ([1]; Pancreas, 10mpk): 0.3617
- Predicted (LS) mean diff. (Vehicle vs. 11c), Tissue Weight ([1]; eWAT, 5mpk): -0.00381
- Significant? (Vehicle vs. 11c), Tissue Weight ([1]; eWAT, 5mpk): No
- Predicted (LS) mean 2 (11c group), Tissue Weight ([1]; eWAT, 5mpk): 1.373
- Predicted (LS) mean diff. (Vehicle vs. 11c), Tissue Weight ([1]; eWAT, 10mpk): 0.2238
- Significant? (Vehicle vs. 11c), Tissue Weight ([1]; eWAT, 10mpk): No
- Predicted (LS) mean 2 (11c group), Tissue Weight ([1]; eWAT, 10mpk): 1.146
- Predicted (LS) mean diff. (Vehicle vs. 11c), Tissue Weight ([1]; iWAT, 5mpk): 0.08033
- Significant? (Vehicle vs. 11c), Tissue Weight ([1]; iWAT, 5mpk): No
- Predicted (LS) mean 2 (11c group), Tissue Weight ([1]; iWAT, 5mpk): 1.008
- Predicted (LS) mean diff. (Vehicle vs. 11c), Tissue Weight ([1]; iWAT, 10mpk): 0.5213
- Significant? (Vehicle vs. 11c), Tissue Weight ([1]; iWAT, 10mpk): Yes
- Predicted (LS) mean 2 (11c group), Tissue Weight ([1]; iWAT, 10mpk): 0.567
- concentration present up to 8 hrs [2]: more than 20 nM and > 10 ng/mL
- remaining at 4 h [3]: > 99.9%
- inhibition at 1 µM [4]: 92.56 ± 0.77%
